# Tested on: patients after acute myocardial infarction
# Experiment: TCM symptom score, total and single (chest pain, chest tightness, short breath, fatigue, palpitation, spontaneous perspiration, pale complexion), same clinical trial
# Format: in vivo, human
# Description: 3508 patients who were in accordance with the diagnostic standards of AMI for 28 days to 2 years and differentiated as Qi deficiency and blood stagnation syndrome by TCM were studied. 0.5 g Chinese medicine composition prepared by the method of EXAMPLE 1 (Coded as QSYQ) was administrated half an hour after meal, 3 times per day.
# They included the overall survival time, angina pectoris score, TCM symptom score and life quality score, where angina pectoris score, TCM symptom score and life quality score were evaluated at randomization, in 1st, 3rd, 6th, 9th, 12th month after treatment and 18th month after follow-up.
# The analysis method referred to the angina pectoris score.
# [1] = 3 months after treatment-baseline, PP
# [2] = 6 months after treatment-baseline, FAS
# [3] = 6 months after treatment-baseline, PP
smiles,measurement,setting,value
"CC(=O)Oc1ccccc1C(=O)O [Control group, aspirine]","change of chest pain score −6, percent of patients",[1],(0.97%)
same,"change of chest tightness score 0, number of patients",[1],994
same,"change of chest tightness score 0, percent of patients",[1],(68.88%)
same,"change of chest tightness score 3, number of patients",[1],334
same,"change of chest tightness score 3, percent of patients",[1],(23.15%)
same,"change of chest tightness score 6, number of patients",[1],34
same,"change of chest tightness score 6, percent of patients",[1],(2.36%)
same,"change of chest tightness score 9, number of patients",[1],4
same,"change of chest tightness score 9, percent of patients",[1],(0.28%)
same,"change of chest tightness score −3, number of patients",[1],70
same,"change of chest tightness score −3, percent of patients",[1],(4.85%)
same,"change of chest tightness score −6, number of patients",[1],6
same,"change of chest tightness score −6, percent of patients",[1],(0.42%)
same,"change of chest tightness score −9, number of patients",[1],1
same,"change of chest tightness score −9, percent of patients",[1],(0.07%)
same,"chest pain score 0, number of patients","3 months after treatment, FAS",656
same,"chest pain score 0, percent of patients","3 months after treatment, FAS",(38.21%)
same,"chest pain score 3, number of patients","3 months after treatment, FAS",643
same,"chest pain score 3, percent of patients","3 months after treatment, FAS",(37.45%)
same,"chest pain score 6, number of patients","3 months after treatment, FAS",410
same,"chest pain score 6, percent of patients","3 months after treatment, FAS",(23.88%)
same,"chest pain score 9, number of patients","3 months after treatment, FAS",8
same,"chest pain score 9, percent of patients","3 months after treatment, FAS",(0.47%)
same,"chest tightness score 0, number of patients","3 months after treatment, FAS",656
same,"chest tightness score 0, percent of patients","3 months after treatment, FAS",(38.21%)
same,"chest tightness score 3, number of patients","3 months after treatment, FAS",643
same,"chest tightness score 3, percent of patients","3 months after treatment, FAS",(37.45%)
same,"chest tightness score 6, number of patients","3 months after treatment, FAS",410
same,"chest tightness score 6, percent of patients","3 months after treatment, FAS",(23.88%)
same,"chest tightness score 9, number of patients","3 months after treatment, FAS",8
same,"chest tightness score 9, percent of patients","3 months after treatment, FAS",(0.47%)
same,"chest pain score 0, number of patients","3 months after treatment, PP",550
same,"chest pain score 0, percent of patients","3 months after treatment, PP",(38.01%)
same,"chest pain score 3, number of patients","3 months after treatment, PP",535
same,"chest pain score 3, percent of patients","3 months after treatment, PP",(36.97%)
same,"chest pain score 6, number of patients","3 months after treatment, PP",356
same,"chest pain score 6, percent of patients","3 months after treatment, PP",(24.60%)
same,"chest pain score 9, number of patients","3 months after treatment, PP",6
same,"chest pain score 9, percent of patients","3 months after treatment, PP",(0.41%)
same,"chest tightness score 0, number of patients","3 months after treatment, PP",550
same,"chest tightness score 0, percent of patients","3 months after treatment, PP",(38.01%)
same,"chest tightness score 3, number of patients","3 months after treatment, PP",535
same,"chest tightness score 3, percent of patients","3 months after treatment, PP",(36.97%)
same,"chest tightness score 6, number of patients","3 months after treatment, PP",356
same,"chest tightness score 6, percent of patients","3 months after treatment, PP",(24.60%)
same,"chest tightness score 9, number of patients","3 months after treatment, PP",6
same,"chest tightness score 9, percent of patients","3 months after treatment, PP",(0.41%)
same,"change of chest pain score 0, number of patients",[2],1104
same,"change of chest pain score 0, percent of patients",[2],(64.60%)
same,"change of chest pain score 3, number of patients",[2],405
same,"change of chest pain score 3, percent of patients",[2],(23.70%)
same,"change of chest pain score 6, number of patients",[2],101
same,"change of chest pain score 6, percent of patients",[2],(5.91%)
same,"change of chest pain score 9, number of patients",[2],6
same,"change of chest pain score 9, percent of patients",[2],(0.35%)
same,"change of chest pain score −3, number of patients",[2],80
same,"change of chest pain score −3, percent of patients",[2],(4.68%)
same,"change of chest pain score −6, number of patients",[2],13
same,"change of chest pain score −6, percent of patients",[2],(0.76%)
same,"change of chest pain score −9, number of patients",[2],0
same,"change of chest pain score −9, percent of patients",[2],(0.00%)
same,"change of chest tightness score 0, number of patients",[2],1105
same,"change of chest tightness score 0, percent of patients",[2],(64.66%)
same,"change of chest tightness score 1, number of patients",[2],1
same,"change of chest tightness score 1, percent of patients",[2],(0.06%)
same,"change of chest tightness score 3, number of patients",[2],459
same,"change of chest tightness score 3, percent of patients",[2],(26.86%)
same,"change of chest tightness score 6, number of patients",[2],48
same,"change of chest tightness score 6, percent of patients",[2],(2.81%)
same,"change of chest tightness score 9, number of patients",[2],4
same,"change of chest tightness score 9, percent of patients",[2],(0.23%)
same,"change of chest tightness score −3, number of patients",[2],88
same,"change of chest tightness score −3, percent of patients",[2],(5.15%)
same,"change of chest tightness score −6, number of patients",[2],3
same,"change of chest tightness score −6, percent of patients",[2],(0.18%)
same,"change of chest tightness score −9, number of patients",[2],1
same,"change of chest tightness score −9, percent of patients",[2],(0.06%)
same,"change of chest pain score 0, number of patients",[3],919
same,"change of chest pain score 0, percent of patients",[3],(64.54%)
same,"change of chest pain score 3, number of patients",[3],352
same,"change of chest pain score 3, percent of patients",[3],(24.72%)
same,"change of chest pain score 6, number of patients",[3],86
same,"change of chest pain score 6, percent of patients",[3],(6.04%)
same,"change of chest pain score 9, number of patients",[3],5
same,"change of chest pain score 9, percent of patients",[3],(0.35%)
same,"change of chest pain score −3, number of patients",[3],57
same,"change of chest pain score −3, percent of patients",[3],(4.00%)
same,"change of chest pain score −6, number of patients",[3],5
same,"change of chest pain score −6, percent of patients",[3],(0.35%)
same,"change of chest pain score −9, number of patients",[3],0
same,"change of chest pain score −9, percent of patients",[3],(0.00%)
same,"change of chest tightness score 0, number of patients",[3],904
same,"change of chest tightness score 0, percent of patients",[3],(63.44%)
same,"change of chest tightness score 1, number of patients",[3],1
same,"change of chest tightness score 1, percent of patients",[3],(0.07%)
same,"change of chest tightness score 3, number of patients",[3],407
same,"change of chest tightness score 3, percent of patients",[3],(28.56%)
same,"change of chest tightness score 6, number of patients",[3],42
same,"change of chest tightness score 6, percent of patients",[3],(2.95%)
same,"change of chest tightness score 9, number of patients",[3],3
same,"change of chest tightness score 9, percent of patients",[3],(0.21%)
same,"change of chest tightness score −3, number of patients",[3],64
same,"change of chest tightness score −3, percent of patients",[3],(4.49%)
same,"change of chest tightness score −6, number of patients",[3],3
same,"change of chest tightness score −6, percent of patients",[3],(0.21%)
same,"change of chest tightness score −9, number of patients",[3],1
same,"change of chest tightness score −9, percent of patients",[3],(0.07%)
same,"chest pain score 0, number of patients","6 months after treatment, FAS",729
same,"chest pain score 0, percent of patients","6 months after treatment, FAS",(42.43%)
same,"chest pain score 3, number of patients","6 months after treatment, FAS",638
same,"chest pain score 3, percent of patients","6 months after treatment, FAS",(37.14%)
same,"chest pain score 6, number of patients","6 months after treatment, FAS",345
same,"chest pain score 6, percent of patients","6 months after treatment, FAS",(20.08%)
same,"chest pain score 9, number of patients","6 months after treatment, FAS",6
same,"chest pain score 9, percent of patients","6 months after treatment, FAS",(0.35%)
same,"chest tightness score 0, number of patients","6 months after treatment, FAS",729
same,"chest tightness score 0, percent of patients","6 months after treatment, FAS",(42.43%)
same,"chest tightness score 3, number of patients","6 months after treatment, FAS",638
same,"chest tightness score 3, percent of patients","6 months after treatment, FAS",(37.14%)
same,"chest tightness score 6, number of patients","6 months after treatment, FAS",345
same,"chest tightness score 6, percent of patients","6 months after treatment, FAS",(20.08%)
same,"chest tightness score 9, number of patients","6 months after treatment, FAS",6
same,"chest tightness score 9, percent of patients","6 months after treatment, FAS",(0.35%)
same,"chest pain score 0, number of patients","6 months after treatment, PP",613

# From patent US9211310B2, “Use of a Chinese medicine composition in preparing medicaments for treating secondary prevention of myocardial infarction” (TASLY PHARMACEUTICAL GROUP CO., LTD, priority 2010, dated 2015)
